# Assays:
# [1] = Feasibility study on Form 1 (solubility in freeze-drying solvent mixtures); assay type: physicochemical; settings: thermodynamic from solid
# Method: The freeze drying experiments were performed in 1.8 ml vials. Approximately 20 mg of starting material were weight in a HPLC vial and dissolved in five different solvent mixtures. […] These two experimental samples were freeze-dried in liquid nitrogen, followed by placing the vials in a freeze-dryer for 24 hours. The obtained solid was then harvested and analyzed by XRPD and digital imaging.
# Grinding experiments were performed in stainless steel grinding vials, containing 2 stainless steel grinding balls and a frequency of 30 Hz. Following the experiments, XRPD analysis was performed to assess the crystallinity of the materials.
# [2] = Water solubility of Form 1 (observation from slurry experiment in water); assay type: physicochemical
# Method: After the slurry time, the solids were separated from the solutions by centrifugation, harvested wet and analyzed by XRPD and digital imaging. The solids were then exposed to accelerated aging conditions (2 days at 40° C./75% RH), followed by XRPD re-analysis.
# The slurry experiment in water for two weeks at room temperature produced the anhydrous starting material, Form 1.
compound,measurement,setting,value
"CCN1C(=O)CNc2ncc(-c3ccc(-c4nc[nH]n4)nc3C)nc21 [Form 1, 1-ethyl-7-(2-methyl-6-(1H-1,2,4-triazol-3-yl)pyridin-3-yl)-3,4-dihydropyrazino[2,3-b]pyrazin-2(1H)-one]",solubility,"[1]; aqueous with cosolvent or surfactant or cyclodextrin, THF/Water (50/50), 25.1 mg in 1000 μL, not dissolved",< 25 mg/mL
same,solubility,"[1]; organic solvent or mixture, Ethanol/water (90/10), 24.2 mg in 400 μL, not dissolved",< 60 mg/mL
same,solubility,"[1]; organic solvent or mixture, TFE/water (90/10), 20.7 mg in 1000 μL, dissolved",21 mg/mL
same,solubility,"[1]; organic solvent or mixture, TFE, 21.9 mg in 1000 μL, dissolved",22 mg/mL
same,solubility,"[1]; organic solvent or mixture, THF/water (90/10), 24.8 mg in 1000 μL, not dissolved",< 25 mg/mL
same,Solubility in water,[2],practically insoluble
